What all share (format): physicochemical
Data set [1] can be described thus: Comparative stability at 40 °C and 75% RH at open conditions (UPLC/UV and XRPD). The conditions noted are these: 40 °C/75% RH open; for % area main peak (LC/UV): 0 days. As for the experimental part: In a second experiment, approximately 100 mg of compound A mesylate salt Form 2 according to Example 2, free base Form A according to Example 1 and esylate salt Form 1 according to Example 6 were stored in three open amber glass vials covered with filter paper to simulate open conditions. The samples were stored in a stability chamber at 75% RH and 40 °C to compare their stability. At the time points 0, 28, 56, 84 days the corresponding samples were removed from the stability chambers. After conditioning at RT, the samples were analyzed by UPLC/UV and XRPD.

Data set [2] in a line: Dynamic vapour sorption (DVS), hygroscopicity. The procedure:
Moisture sorption/desorption data were collected on a TA Instruments Vapor Sorption Analyzer Q5000SA.
First step: sorption data was collected in the range 40% to 90% relative humidity (RH).
Second Step: desorption, sorption and desorption data were collected over a range of 0% to 90% RH at 10% RH intervals under a nitrogen purge. Samples were not dried prior to analysis. Equilibrium criteria used for analysis were less than 0.100% weight change in 20 minutes, with a maximum equilibration time of 1 hour if the weight criterion was not met. Data were not corrected for the initial moisture content of the samples. NaBr was used as humidity verification.
Moisture sorption/desorption data were also collected on a ProUmid SnS 23 equipped with a 23 autosampler following Method 1.
In the first step sorption data was collected in the range 0% to 90% RH. Samples were not dried prior to analysis.
In the second Step desorption, sorption and desorption data were collected over a range of 0% to 90% (RH) at 10% RH intervals under a nitrogen purge. Data were not corrected for the initial moisture content of the samples.

Data set [3] is described as follows: Dissolution in Fasted State Simulated Gastric Fluid (FaSSGF), manual experiment, 37 °C. Conditions: for Solubility: 37 °C. The procedure: The dissolution in Fasted State Simulated Gastric Fluid (FaSSGF) of mesylate salt Form 2 of the compound A of Example 2 and esylate salt Form 1 of Example 6 in comparison with the free base Form A and with other salts was tested by means of manual experiment. The medium for simulated oral fluids was FaSSGF obtained from Biorelevant.com Ltd. The experiments were conducted for 60 minutes at 37 °C.
General preparation of salts: in a round-bottomed flask, 200 mg of compound A free base Form A according to Example 1 (0.52 mmol) were suspended in 5 ml of solvent and stirred at RT. Acetone was employed for bromide, ethanedisulfonate, malonate, sulfate, saccharinate, tosylate, orotate, besylate, hemisulfate, phosphate and tartrate salts; water was employed for chloride salt; ethyl formate was employed for maleate, oxalate, gentisicate, fumarate and mandelate salts; tetrahydrofuran was employed for camphorsulfonate and pamoate salts; isopropyl acetate was employed for 4-hydroxybenzoate and methanol for camphorate salt. The corresponding acid was added under stirring in equimolar amount (except for hemisulfate, added in 0.5 molar amount). After 1 hour the crystalline solid was isolated by filtration, washed with the corresponding solvent (2×1 ml) and dried under nitrogen for 2 hours.
The quantification of the dissolved amount was done by LC/UV system at different checkpoints up to 60 minutes. The saturation solution concentration was around 25-30 mg/ml. […] In a second experiment, the quantification was repeated with saturation solution concentration 170 mg/ml for the mesylate salt Form 2 and 100 mg/ml for the esylate salt Form 1. The results are reported in tables 8A, 8B, 8C, 8D and FIG. 28.

Data set [4] in a line: Formulations with polymer: drug content and appearance. Conditions: for Found conc.: nominal 40 mg/ml. From the text:
The formulation having a 0.05 M citrate buffer concentration was chosen to be tested with the addition of polymers to investigate the effect due to a potential viscosity increase.
Different percentage of polymers were used, e.g. 5% w/v of polyvinylpyrrolidone (PVP) 40 or 1% w/v HPMC.
The formulations were studied with or without the use of the surfactant D-α-tocopherol polyethylene glycol succinate (Vit. E TPGS, Sigma Aldrich; CAS: 9002-96-4) in 0.05 M citrate buffer at pH 2.5 at the nominal concentration of 40 mg/ml. To prepare the vehicle the proper amount of citric acid was dissolved in water in a volumetric flask, then the pH was increased up to 2.5 using 0.1 M NaOH. Then water was added and brought to the final volume. The polymers PVP 40 (Sigma Aldrich; CAS: 9003-39-8) or HPMC (viscosity 46-60 cP; Sigma Aldrich; CAS: 9004-65-3) were gently dissolved in citrate buffer and left under magnetic stirring for at least 1 hour to their complete hydration. When required, Vit. E TPGS was subsequently added to the media and gently left under magnetic stirring to avoid bubbles formation.
The required volume of vehicle was added to a known amount of Compound A free base Form A or Mesylate salt Form 2, then sonicated at RT for at least 10 min. The formulation was kept under magnetic stirring for at least 10 min before analysis.

The mark [5] stands for this setting: 1% w/v HPMC, 1% w/v Vit. E TPGS, 0.05 M citrate buffer pH 2.5.
The mark [6] stands for this setting: 5% w/v PVP, 1% w/v Vit. E TPGS, 0.05 M citrate buffer pH 2.5.
[7] abbreviates: 5% w/v PVP, 0.05 M citrate buffer pH 2.5.

Structures are written as SMILES. Converted amounts (≈) assume the structure as drawn. Counter-ions that a name gives are not always drawn.

As a reminder, the Solubility is how much of the substance goes into solution per volume. On to `COc1cc(-c2ccc(F)cn2)cc2c(N[C@H](C)c3noc(C)n3)ncnc12` [mesylate salt Form 2, (R)-6-(5-fluoropyridin-2-yl)-8-methoxy-N-(1-(5-methyl-1,2,4-oxadiazol-3-yl)ethyl)quinazolin-4-amine], for which the Stability result in data set [1] (84 days) is given as “surprisingly good stability during stressed storage”. The “% area main peak (LC/UV)” value in data set [1] came to 99.9 % area. Further, the “Total weight gain (hygroscopicity)” value in data set [2] (between 0% and 90% RH) was “about 1.049 wt %”. The Solubility in data set [3] (first experiment (saturation conc. around 25-30 mg/ml), 5 min, listed as mesylate Form 2, 5 min) was 31.44 mg/mL; in data set [3] (first experiment, 10 min, listed as mesylate Form 2, 10 min), 31.92 mg/mL; in data set [3] (first experiment, 20 min, listed as mesylate Form 2, 20 min) it was 31.65 mg/mL; in data set [3] (first experiment, 40 min, listed as mesylate Form 2, 40 min) it was 31.16 mg/mL; in data set [3] (first experiment, 60 min) it was no less than 25 mg/mL; in data set [3] (first experiment, 60 min, listed as mesylate Form 2, 60 min) it was 31.30 mg/mL. In addition, the Solubility is 19.25 mg/mL in data set [3] (second experiment (saturation conc. 170 mg/ml mesylate, 100 mg/ml esylate), 0 min, listed as mesylate Form 2, 0 min); 151.67 mg/mL in data set [3] (second experiment, 15 min, listed as mesylate Form 2, 15 min); 159.96 mg/mL in data set [3] (second experiment, 30 min, listed as mesylate Form 2, 30 min); 169.82 mg/mL in data set [3] (second experiment, 60 min, listed as mesylate Form 2, 60 min). The “Solubility compared to free base Form A” value in data set [3] (60 minutes) is “consistently higher solubility than the free base Form A during the 60 minutes time”. For the same compound, in data set [3] (first experiment, saturation conc. around 25-30 mg/ml), the Dissolution entry is “completely dissolved”. Besides, the Appearance entry in data set [4] (setting [5]), in data set [4] (setting [6]) and in data set [4] (setting [7]) was “Solution” throughout. Moreover, the Mean recovery in data set [4] (setting [5]) came out at 111.10%; in data set [4] (setting [6]), 112.20%; in data set [4] (setting [7]) it was 116.30%. For the same compound, the Found conc. in data set [4] (setting [5]) was 44.44 mg/mL; in data set [4] (setting [6]) it was 44.87 mg/mL; in data set [4] (setting [7]) it was 46.51 mg/mL. Besides, the “Formulability in solution compared to free base Form A” value in data set [4] (with polymers, all excipients considered) was “better formulability in solution”.

Regarding `COc1cc(-c2ccc(F)cn2)cc2c(N[C@H](C)c3noc(C)n3)ncnc12` [free base Form A, (R)-6-(5-fluoropyridin-2-yl)-8-methoxy-N-(1-(5-methyl-1,2,4-oxadiazol-3-yl)ethyl)quinazolin-4-amine], the “% area main peak (LC/UV)” value in data set [1] turned out to be 99.8 % area. In addition, the “Total weight gain (hygroscopicity)” value in data set [2] (between 2.5% and 90% RH) is reported as “about 0.249 wt %”. For the same compound, in data set [2] (between 20% and 80% RH), the Hygroscopicity entry is on record as “No hygroscopicity was noted”. In addition, in data set [2] (between 20% and 80% RH), the Total water uptake was 0.249%. In addition, the Solubility in data set [3] (first experiment (saturation conc. around 25-30 mg/ml), 5 min) was 6.87 mg/mL (≈ 18.1 mM); in data set [3] (first experiment, 10 min), 7.01 mg/mL (≈ 18.4 mM); in data set [3] (first experiment, 20 min), 6.84 mg/mL (≈ 18 mM); in data set [3] (first experiment, 40 min), 6.89 mg/mL (≈ 18.1 mM); in data set [3] (first experiment, 60 min), 6.89 mg/mL (≈ 18.1 mM); in data set [3] (second experiment (saturation conc. 170 mg/ml mesylate, 100 mg/ml esylate), 0 min), 0.63 mg/mL (≈ 1.66 mM). The Solubility in data set [3] (second experiment, 15 min) was 12.77 mg/mL (≈ 33.6 mM); in data set [3] (second experiment, 30 min) it was 11.89 mg/mL (≈ 31.3 mM); in data set [3] (second experiment, 60 min) it was 13.47 mg/mL (≈ 35.4 mM). The Appearance result is recorded as “Suspension” in data set [4] (setting [5]), “Suspension” in data set [4] (setting [6]), “Suspension” in data set [4] (setting [7]) and “suspensions” in data set [4] (all formulations with polymer). The Mean recovery in data set [4] (setting [5]) stood at 104.9%; in data set [4] (setting [6]), 111.18%; in data set [4] (setting [7]), 100.3%. Further, the Found conc. in data set [4] (setting [5]) came out at 41.96 mg/mL; in data set [4] (setting [6]), 44.47 mg/mL; in data set [4] (setting [7]), 40.12 mg/mL.

The record behind these values is patent US20260356826A1, “SALTS OF AMINO QUINAZOLINE DERIVATIVES” (CHIESI FARMACEUTICI S.P.A., priority 2023, published 2026).
